Source: patent US5756531A, “Iminoxy derivatives of indole and indene compounds as inhibitors of prostaglandin biosynthesis” (Abbott Laboratories, priority 1996, dated 1998)

Key:
[1] = target: T1, recombinant human PGHS-2 (prostaglandin hydroperoxidase -2, cyclooxygenase-2) (Homo sapiens, UniProt P35354); test: Recombinant Human PGHS-2 enzyme assay (PGE2 production by EIA); assay type: biochemical; conditions: 60 min preincubation; 10 μM arachidonic acid
T1 construct: made in house; host or cells: baculovirus/Sf9 insect cells (microsomes)
T1 sequence (P35354 18-604): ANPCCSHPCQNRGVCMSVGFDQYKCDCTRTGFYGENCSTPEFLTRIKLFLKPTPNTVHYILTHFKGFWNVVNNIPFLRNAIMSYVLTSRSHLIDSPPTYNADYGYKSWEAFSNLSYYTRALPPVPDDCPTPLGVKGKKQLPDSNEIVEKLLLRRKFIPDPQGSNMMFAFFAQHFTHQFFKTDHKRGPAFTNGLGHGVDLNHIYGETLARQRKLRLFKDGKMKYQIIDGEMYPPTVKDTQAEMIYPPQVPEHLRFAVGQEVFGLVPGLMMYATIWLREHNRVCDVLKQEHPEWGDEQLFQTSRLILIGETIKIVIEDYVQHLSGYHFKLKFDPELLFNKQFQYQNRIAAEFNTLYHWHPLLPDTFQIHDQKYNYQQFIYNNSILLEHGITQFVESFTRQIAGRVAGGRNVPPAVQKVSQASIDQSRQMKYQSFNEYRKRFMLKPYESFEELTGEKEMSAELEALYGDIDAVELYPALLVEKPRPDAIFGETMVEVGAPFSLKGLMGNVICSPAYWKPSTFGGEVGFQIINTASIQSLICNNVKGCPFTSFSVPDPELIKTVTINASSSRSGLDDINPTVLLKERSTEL
Experimental: 2. recombinant human prostaglandin hydroperoxidase -2 (cyclooxygenase-2)
(§1) Compound dissolved in DMSO (3.3% v/v) was preincubated with microsomes from recombinant human PGHS-1 or PGHS-2 expressed in the baculovirus/Sf9 cell system (Gierse, J. K., Hauser, S. D., Creely, D. P., Koboldt, C., Rangwala, S., H., Isakson, P. C., and Seibert, K. Expression and selective inhibition of the constituitive and inducible forms of cyclooxygenase Biochem J. 1995, 305: 479.), together with the cofactors phenol (2 mM) and hematin (1 μM) for 60 minutes prior to the addition of 10 μM arachidonic acid. The reaction was allowed to run for 2.5 minutes at room temperature prior to quenching with HCl and neutralization with NaOH. PGE2 production in the presence and absence of the drug was determined by EIA analysis.
(§2) EIA reagents for prostaglandin determination were purchased from Perseptive Diagnostics, Cambridge, Mass. PGE2 levels in lavage fluids were determined after the samples were dried under nitrogen and reconstituted with assay buffer. PGE2 levels in enzyme assays or cell culture media were measured against standards prepared in the same milieu. The immunoassays were conducted as recommended by the manufacturer. The EIA was conducted in 96 well microtiter plates (Nunc Roskilde, Denmark) and optical density measured using a microplate reader (Vmax, Molecular Devices Corp., Menlo Park, Calif.).

[2] = target: T2, recombinant human PGHS-1 (prostaglandin hydroperoxidase -1, cyclooxygenase-1) (Homo sapiens, UniProt P23219); test: Recombinant Human PGHS-1 enzyme assay (PGE2 production by EIA); assay type: biochemical; conditions: 60 min preincubation; 10 μM arachidonic acid
T2 construct: made in house; host or cells: baculovirus/Sf9 insect cells (microsomes)
Experimental: 1. recombinant human prostaglandin hydroperoxidase -1 (cyclooxygenase-1)
as §1, §2

[3] = system: PGHS-1; conditions: in words; cited from earlier work
[4] = system: PGHS-2; conditions: in words; cited from earlier work

T2 sequence (P23219 24-599): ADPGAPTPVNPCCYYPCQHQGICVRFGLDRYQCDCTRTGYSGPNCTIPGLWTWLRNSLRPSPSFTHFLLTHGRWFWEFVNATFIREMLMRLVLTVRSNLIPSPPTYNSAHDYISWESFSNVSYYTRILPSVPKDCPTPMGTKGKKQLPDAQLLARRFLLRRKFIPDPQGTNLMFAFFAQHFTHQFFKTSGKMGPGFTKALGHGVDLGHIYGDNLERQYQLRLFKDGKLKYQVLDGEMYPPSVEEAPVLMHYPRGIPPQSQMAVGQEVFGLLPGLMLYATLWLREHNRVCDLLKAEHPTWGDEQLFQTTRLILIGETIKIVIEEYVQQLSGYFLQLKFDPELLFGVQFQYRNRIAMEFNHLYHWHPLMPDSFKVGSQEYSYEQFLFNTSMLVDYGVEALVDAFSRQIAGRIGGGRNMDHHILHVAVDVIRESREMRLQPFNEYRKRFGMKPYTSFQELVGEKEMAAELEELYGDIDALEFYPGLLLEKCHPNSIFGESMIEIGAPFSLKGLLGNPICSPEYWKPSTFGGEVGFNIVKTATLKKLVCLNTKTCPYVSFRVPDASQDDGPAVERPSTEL

Row | SMILES | IC50 [1] [µM] | IC50 [2] [µM] | inhibition of PGHS-1 [3] | inhibition of PGHS-2 [4]
1 | COc1ccc2c(c1)c(CCON=C(C)/C=C/C(=O)O)c(C)n2C(=O)c1ccc(Cl)cc1 [Example 6, 4-oxopent-2-enoic acid-2-O-[2-(4-chlorobenzoyl-5-methoxy-2-methylindol-3-yl)ethyl] oxime] | 0.07 | 52 | – | –
2 | COc1ccc2c(c1)c(CCON=CC(O)CO)c(C)n2C(=O)c1ccc(Cl)cc1 (stereo not drawn) [Example 7, glyceraldehyde-O-[2-(1-(4-chlorobenzoyl)-5-methoxy-2-methylindol-3-yl)ethyl] oxime] | 0.06 | 24 | – | –
3 | COc1ccc2c(c1)c(CC(=O)O)c(C)n2C(=O)c1ccc(Cl)cc1 [Indomethacin, indomethacin] | – | – | inhibit both PGHS-1 and PGHS-2 | inhibit both PGHS-1 and PGHS-2
4 | CC(C)Cc1ccc(C(C)C(=O)O)cc1 (stereo not drawn) [ibuprofen] | – | – | inhibit both isozymes | inhibit both isozymes
5 | COc1ccc2cc([C@H](C)C(=O)O)ccc2c1 [naproxen] | – | – | inhibit both isozymes | inhibit both isozymes
6 | CC1=C(CC(=O)O)c2cc(F)ccc2/C1=C\c1ccc([S+](C)[O-])cc1 (stereo not drawn) [sulindac] | – | – | inhibit both PGHS-1 and PGHS-2 | inhibit both PGHS-1 and PGHS-2
